Reference: patent US20250122174A1 (Shenzhen Yuanli Shenwan Innovative Medicine Co., Ltd., priority 2022, published 2025)

Target: HPK1 (Homo sapiens (Human), UniProt Q92918)
Assay: HPK1 Inhibition Assay (ADP-Glo kinase assay)
Type: biochemical
Conditions: ATP 10 μM
Method in brief: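 ADP-Glo luminescence read-out after 1 h room-temperature kinase reaction with 10 μM ATP and 0.1 μg/ml MBP. Recombinant human HPK1 at 7.5 ng/μl; buffer 40 mM Tris pH 7.5, 20 mM MgCl2. Compounds serially diluted 5-fold over 10 points from 10 mM DMSO stock.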

Sequence of HPK1 (Q92918 1-346 limits assumed): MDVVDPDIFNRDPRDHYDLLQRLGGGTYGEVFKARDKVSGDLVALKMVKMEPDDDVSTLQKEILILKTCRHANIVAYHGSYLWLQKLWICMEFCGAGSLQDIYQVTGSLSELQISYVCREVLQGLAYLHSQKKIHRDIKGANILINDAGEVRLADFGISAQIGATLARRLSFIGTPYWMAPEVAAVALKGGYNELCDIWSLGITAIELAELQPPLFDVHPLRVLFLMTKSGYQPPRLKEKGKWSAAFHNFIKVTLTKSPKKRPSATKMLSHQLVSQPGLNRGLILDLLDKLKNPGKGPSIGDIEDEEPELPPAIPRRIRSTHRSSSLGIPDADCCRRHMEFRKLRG

IC50, < 0.1 µM:
C[C@]1(N)CCN(c2cc(-c3cnccc3C#N)ccc2NC(=O)c2ccc(=O)n(-c3c(F)cccc3F)n2)C1 [Example 348, (S)-N-(2-(3-amino-3-methylpyrrolidin-1-yl)-4-(4-cyanopyridin-3-yl)phenyl)-1-(2,6-difluorophenyl)-6-oxo-1,6-dihydropyridazine-3-carboxamide]
N#Cc1ccncc1-c1ccc(NC(=O)c2ccc(=O)n(-c3c(F)cccc3F)n2)c(N2CCC(O)CC2)c1 [Example 349, N-(4-(4-cyanopyridin-3-yl)-2-(4-hydroxypiperidin-1-yl)phenyl)-1-(2,6-difluorophenyl)-6-oxo-1,6-dihydropyridazine-3-carboxamide]
N#Cc1ccncc1-c1ccc(NC(=O)c2ccc(=O)n(-c3c(F)cccc3F)n2)c(N2CCN[C@H](CO)C2)c1 [Example 350, (S)-N-(4-(4-cyanopyridin-3-yl)-2-(3-(hydroxymethyl)piperazin-1-yl)phenyl)-1-(2,6-difluorophenyl)-6-oxo-1,6-dihydropyridazine-3-carboxamide]
N#Cc1ccncc1-c1ccc(NC(=O)c2ccc(=O)n(-c3c(F)cccc3F)n2)c(N2C[C@H](N)C[C@H]2CO)c1 [Example 351, N-(2-((2S,4R)-4-amino-2-(hydroxymethyl)pyrrolidin-1-yl)-4-(4-cyanopyridin-3-yl)phenyl)-1-(2,6-difluorophenyl)-6-oxo-1,6-dihydropyridazine-3-carboxamide]
N#Cc1ccncc1-c1ccc(NC(=O)c2ccc(=O)n(-c3c(F)cccc3F)n2)c(N2CCC(N)(CO)CC2)c1 [Example 352, N-(2-(4-amino-4-(hydroxymethyl)piperidin-1-yl)-4-(4-cyanopyridin-3-yl)phenyl)-1-(2,6-difluorophenyl)-6-oxo-1,6-dihydropyridazine-3-carboxamide]
N#Cc1ccncc1-c1ccc(NC(=O)c2ccc(=O)n(-c3c(F)cccc3F)n2)c(N2CCC(F)(F)[C@@H](N)C2)c1 [Example 357, (S)-N-(2-(3-amino-4,4-difluoropiperidin-1-yl)-4-(4-cyanopyridin-3-yl)phenyl)-1-(2,6-difluorophenyl)-6-oxo-1,6-dihydropyridazine-3-carboxamide]
N#Cc1ccncc1-c1ccc(NC(=O)c2ccc(=O)n(-c3c(F)cccc3F)n2)c(N2CCC(NCCO)CC2)c1 [Example 360, N-(4-(4-cyanopyridin-3-yl)-2-(4-((2-hydroxyethyl)amino)piperidin-1-yl)phenyl)-1-(2,6-difluorophenyl)-6-oxo-1,6-dihydropyridazine-3-carboxamide]
N#Cc1ccncc1-c1ccc(NC(=O)c2ccc(=O)n(-c3c(F)cccc3Cl)n2)c(N2C[C@@H](N)C[C@H]2CO)c1 [Example 361, N-(2-((2S,4S)-4-amino-2-(hydroxymethyl)pyrrolidin-1-yl)-4-(4-cyanopyridin-3-yl)phenyl)-1-(2-chloro-6-fluorophenyl)-6-oxo-1,6-dihydropyridazine-3-carboxamide]
